Converted amounts (≈) assume the structure as drawn. Like-named read-outs stand apart in the source and are kept apart here.
Experiments:
[1] = tested on: Plasmodium falciparum (D6 clone); assay: Antimalarial activity in vitro, D6 clone; type: cell-based; conditions: for IC50: Plasmodium falciparum, D6
[2] = tested on: P. falciparum (chlorine-resistant W2 clone); assay: Antimalarial activity in vitro, W2 clone; type: cell-based, Plasmodium falciparum; conditions: for IC50: Plasmodium falciparum
Leishmania donovani = assay: Antileishmanial activity in vitro; type: cell-based
[3] = tested on: Mycobacterium intracellulare; assay: Activity against M. intracellulare; type: cell-based
[4] = tested on: Mycobacterium tuberculosis H37Rv; assay: In vitro antimycobacterial activity (Microplate Alamar Blue Assay), MIC; type: cell-based; conditions: for MIC: Mycobacterium tuberculosis, H37RV
Cryptococcus neoformans = assay: Antifungal activity against Cryptococcus neoformans; type: cell-based; conditions: T5, NA = not active
HIV-1LAV = assay: Anti-HIV-1 activity in PBM cells; type: cell-based, human immunodeficiency virus (HIV-1); conditions: T5
Experimental: Anti-HIV-1 activity was determined in PBM cells as described previously. See, Stock solutions (20 or 40 mM) of the compounds were prepared in sterile DMSO and then diluted to the desired concentration in growth medium. Cells were infected with the prototype HIV-1LAV at a multiplicity of infection of 0.1. Details on the infection of cells and assessment of antiviral effects was described previously. See, Schinazi, R. F.; McMillan, A.; Cannon, D.; Mathis, R.; Lloyd, R. M.; Peck, A.; Sommadossi, J.-P.; Clair, M. S.; Wilson, J.; Furman, P. A.; Painter G.; Choi, W.-B.; Liotta, D. C. Antimicrob. Agents Chemother. 1992, 36, 2423-2431 and Schinazi, R. F.; Sommadossi, J.-P.; Saalmann, V.; Cannon, D. L.; Xie, M.-Y.; Hart, G. C.; Smith, G. A.; Hahn, E. F. Antimicrob. Agents Chemother. 1990, 34, 1061-1067.

Staphylococcus aureus = assay: Antibacterial activity against S. aureus; type: cell-based; conditions: for IC50: Staphylococcus aureus
[5] = tested on: methicillin-resistant Staphylococcus aureus; assay: Antibacterial activity against MRS; type: cell-based
[6] = T4, NA = not active, read-out: Plasmodium falciparum (D6 clone) IC 50
[7] = W2, read-out: P. falciparum (chlorine-resistant W2 clone) IC 50
[8] = Mycobacterium intracellulare, T5, NA = not active, read-out: IC50 M. intracellulare
[9] = T4, read-out: Mycobacterium Tuberculosis (H37Rv) MIC

## 12-O-methylmanzamine-A
[1]; T7
  Plasmodium falciparum (D6 clone) IC 50: 1.9 µg/mL
[2]; T7
  P. falciparum (chlorine-resistant W2 clone) IC 50: 1 µg/mL
Leishmania donovani; T7
  Leishmania donovani IC 50: 6.5 µg/mL
  Leishmania donovani IC 90: 16 µg/mL
[3]; T7, first value of a cell '2.0/5.0'
  M. intracellulare IC50: 2.0 µg/mL
[3]; T7, value after the slash under head IC50
  M. intracellulare, second value of the cell (presumably MIC): 5.0 µg/mL

## O=C1CCCN2[C@@H](CC1)C[C@]13CN4CCCC/C=C\CC[C@](O)(C=C(c5nccc6c5[nH]c5ccc(O)cc56)[C@@H]1CC4)[C@H]23 [6-Hydroxymanzamine E]
[4]; T4
  Mycobacterium Tuberculosis (H37Rv) MIC: 0.4 µg/mL
Cryptococcus neoformans
  Antifungal IC50 C. neoformans: 5.5 µg/mL
[1]; T4, NA = not active
  Plasmodium falciparum (D6 clone) IC 50: 0.78 µg/mL
[2]; T4, NA = not active
  P. falciparum (chlorine-resistant W2 clone) IC 50: 0.87 µg/mL
Leishmania donovani; T4
  Leishmania donovani IC 50: 2.5 µg/mL
  Leishmania donovani IC 90: 4.3 µg/mL
[3]; T5, NA = not active
  IC50 M. intracellulare: 3.5 µg/mL (≈ 6.03 µM)

## O=C1CCCN2C3C45C=C(c6nccc7c6[nH]c6ccccc67)C6CCN(CCCC/C=C\CC4)CC63C[C@@]2(CC1)O5 (stereo partly drawn) [12,34-Oxamanzamine E]
HIV-1LAV
  EC50: 17.5 µM

## CCCCOC12C=C(c3nccc4c3[nH]c3ccccc34)C3CCN(CCCCC=CCC1)CC31CC3C=CCCCCN3C21 (stereo not drawn) [12-O-butylmanzamine-A]
Leishmania donovani; T7
  Leishmania donovani IC 50: 4.7 µg/mL
  Leishmania donovani IC 90: 9.1 µg/mL

## CCOC12C=C(c3nccc4c3[nH]c3ccccc34)C3CCN(CCCCC=CCC1)CC31CC3C=CCCCCN3C21 (stereo not drawn) [12-O-ethylmanzamine-A]
Leishmania donovani; T7
  Leishmania donovani IC 50: 2.8 µg/mL
  Leishmania donovani IC 90: 8.2 µg/mL

## CC(C)COC12C=C(c3nccc4c3[nH]c3ccccc34)C3CCN(CCCCC=CCC1)CC31CC3C=CCCCCN3C21 (stereo not drawn) [12-O-isobutylmanzamine-A]
Leishmania donovani; T7
  Leishmania donovani IC 50: 0.98 µg/mL
  Leishmania donovani IC 90: 2.6 µg/mL

## CCCOC12C=C(c3nccc4c3[nH]c3ccccc34)C3CCN(CCCCC=CCC1)CC31CC3C=CCCCCN3C21 (stereo not drawn) [12-O-propylmanzamine-A]
Leishmania donovani; T7
  Leishmania donovani IC 50: 4.5 µg/mL
  Leishmania donovani IC 90: 8.7 µg/mL

## COc1ccc(OC)c(NC2CCCN3C(CC2)C[C@]24CN5CCCC/C=C\CC[C@](O)(C=C(c6nccc7c6[nH]c6c(O)cccc67)C2CC5)[C@H]34)c1 (stereo partly drawn) [33-(2,5-dimethoxyaniline)-manzamine-F]
[1]; T8, NA not defined
  Plasmodium falciparum (D6 clone) IC 50: 1.7 µg/mL
[2]; T8
  P. falciparum (chlorine-resistant W2 clone) IC 50: 2.6 µg/mL

## Oc1cccc2c1[nH]c1c(C3=C[C@@]4(O)CC/C=C\CCCCN5CCC3[C@]3(CC6CCC(NCc7ccc(Cl)cc7)CCCN6[C@H]34)C5)nccc12 (stereo partly drawn) [33-(p-chlorobenzylamino)-manzamine-F]
[1]; T8, NA not defined
  Plasmodium falciparum (D6 clone) IC 50: 0.68 µg/mL
[2]; T8
  P. falciparum (chlorine-resistant W2 clone) IC 50: 1.3 µg/mL

## C[C@@H]1CC[C@H]2[C@@H](C)C(=O)O[C@@H]3O[C@@]4(C)CC[C@@H]1[C@]32OO4 [Artemisinin, reference compound]
[1]; [6]
  IC50: 0.01 µg/mL (≈ 0.0354 µM)
[2]; W2, T4, NA = not active, read-out: P. falciparum (chlorine-resistant W2 clone) IC 50
  IC50: 0.0063 µg/mL (≈ 0.0223 µM)

## CCN(CC)CCCC(C)Nc1ccnc2cc(Cl)ccc12 (stereo not drawn) [Chloroquine, reference compound]
[1]; [6]
  IC50: 0.0155 µg/mL (≈ 0.0485 µM)
[1]; T6
  IC50: 0.01 µg/mL (≈ 0.0313 µM)
[2]; [7]
  IC50: 0.17 µg/mL (≈ 0.531 µM)
[2]; W2, T6, read-out: P. falciparum (W2 clone) IC50
  IC50: 0.14 µg/mL (≈ 0.438 µM)

## O=C(O)c1cn(C2CC2)c2cc(N3CCNCC3)c(F)cc2c1=O [Ciprofloxacin, reference compound]
Staphylococcus aureus; T5, NA = not active, read-out: Antibacterial IC50 S. aureus
  IC50: 0.1 µg/mL (≈ 0.302 µM)
Staphylococcus aureus; T6, read-out: Staphylococcus aureus IC50
  IC50: 0.1 µg/mL (≈ 0.302 µM)
[5]; Staphylococcus aureus, T5, NA = not active, read-out: Antibacterial IC50 MRS
  IC50: 0.1 µg/mL (≈ 0.302 µM)
[5]; Staphylococcus aureus, T6
  MIC: 0.31 µg/mL (≈ 0.936 µM)
[5]; T6, MRS: methicillin-resistant Staphylococcus aureus, read-out: MRS IC50
  IC50: 0.1 µg/mL (≈ 0.302 µM)
[3]; [8]
  IC50: 0.25 µg/mL (≈ 0.754 µM)
[3]; Mycobacterium intracellulare, T6
  MIC: 0.63 µg/mL (≈ 1.9 µM)
[3]; Mycobacterium intracellulare, T6, read-out: Mycobacterium intracellulare IC50
  IC50: 0.25 µg/mL (≈ 0.754 µM)

## O=CC1=C[C@@]2(O)CC/C=C\CCCCN3CC[C@@H]1[C@]1(CC4/C=C\CCCCN4[C@H]12)C3 (stereo partly drawn) [Ircinal A]
[4]; T4
  Mycobacterium Tuberculosis (H37Rv) MIC: 30.2 µg/mL
HIV-1LAV
  EC50: 6.8 µM
[3]; T5, NA = not active
  IC50 M. intracellulare: 50 µg/mL (≈ 122 µM)

## OCC1=C[C@]2(O)CC/C=C\CCCCN3CC[C@@H]1[C@@]1(C[C@H]4/C=C\CCCCN4[C@@H]12)C3 [Ircinol A]
[4]; T4
  Mycobacterium Tuberculosis (H37Rv) MIC: 1.93 µg/mL
HIV-1LAV
  EC50: 4.3 µM
[1]; T4, NA = not active
  Plasmodium falciparum (D6 clone) IC 50: 2.4 µg/mL
[2]; T4, NA = not active
  P. falciparum (chlorine-resistant W2 clone) IC 50: 3.1 µg/mL
[5]; T5, NA = not active
  Antibacterial IC50 MRS: 30 µg/mL
[3]; T5, NA = not active
  IC50 M. intracellulare: 50 µg/mL (≈ 121 µM)

## O=C1CCCN2[C@@H](CC1)C[C@]13CN4CCCC/C=C\CC[C@](O)(C=C(c5nccc6c5[nH]c5ccccc56)[C@@H]1CC4)[C@H]23 [Manzamine E]
[4]; T4
  Mycobacterium Tuberculosis (H37Rv) MIC: 3.76 µg/mL
HIV-1LAV
  EC50: 13.1 µM
[1]; T4, NA = not active
  Plasmodium falciparum (D6 clone) IC 50: 3.4 µg/mL
[2]; T4, NA = not active
  P. falciparum (chlorine-resistant W2 clone) IC 50: 4.76 µg/mL
Leishmania donovani; T4
  Leishmania donovani IC 50: 3.8 µg/mL
  Leishmania donovani IC 90: 6.8 µg/mL
[3]; T5, NA = not active
  IC50 M. intracellulare: 12.5 µg/mL (≈ 22.1 µM)

## O=C1CCCN2[C@@H](CC1)C[C@]13CN4CCCC/C=C\CC[C@](O)(C=C(c5nccc6c5[nH]c5c(O)cccc56)C1CC4)[C@H]23 (stereo partly drawn) [Manzamine F]
[4]; T4
  Mycobacterium Tuberculosis (H37Rv) MIC: 2.56 µg/mL
HIV-1LAV
  EC50: 7.3 µM
Cryptococcus neoformans
  Antifungal IC50 C. neoformans: 6.5 µg/mL
[1]; T4, NA = not active
  Plasmodium falciparum (D6 clone) IC 50: 0.78 µg/mL
[1]; T8, NA not defined
  Plasmodium falciparum (D6 clone) IC 50: 0.78 µg/mL
[2]; T4, NA = not active
  P. falciparum (chlorine-resistant W2 clone) IC 50: 1.7 µg/mL
[2]; T8
  P. falciparum (chlorine-resistant W2 clone) IC 50: 1.7 µg/mL
Leishmania donovani; T4
  Leishmania donovani IC 50: 4.2 µg/mL
  Leishmania donovani IC 90: 7 µg/mL
[3]; T5, NA = not active
  IC50 M. intracellulare: 6.25 µg/mL (≈ 10.8 µM)

## O[C@]12C=C(c3nccc4c3[nH]c3ccccc34)[C@@H]3CCN(CCCC/C=C\CC1)C[C@@]31CC/C=C\CCCCN[C@H]12 [Manzamine J]
[4]; T4
  Mycobacterium Tuberculosis (H37Rv) MIC: 1.7 µg/mL
[1]; T4, NA = not active
  Plasmodium falciparum (D6 clone) IC 50: 1.3 µg/mL
[2]; T4, NA = not active
  P. falciparum (chlorine-resistant W2 clone) IC 50: 0.75 µg/mL
Leishmania donovani; T4
  Leishmania donovani IC 50: 25 µg/mL
  Leishmania donovani IC 90: 45 µg/mL

## Oc1ccc2[nH]c3c(C4=C[C@@]5(O)CC/C=C\CCCCN6CC[C@@H]4[C@@]4(C6)C[C@@]67CC[C@@H](CCCN6[C@H]45)O7)nccc3c2c1 [Manzamine X]
HIV-1LAV
  EC50: 2.3 µM
Cryptococcus neoformans
  Antifungal IC50 C. neoformans: 3.0 µg/mL
[1]; T4, NA = not active
  Plasmodium falciparum (D6 clone) IC 50: 0.95 µg/mL
[2]; T4, NA = not active
  P. falciparum (chlorine-resistant W2 clone) IC 50: 2 µg/mL
Leishmania donovani; T4
  Leishmania donovani IC 50: 5.7 µg/mL
  Leishmania donovani IC 90: 11 µg/mL
Staphylococcus aureus; T5, NA = not active
  Antibacterial IC50 S. aureus: 1.0 µg/mL
[5]; T5, NA = not active
  Antibacterial IC50 MRS: 0.75 µg/mL
[3]; T5, NA = not active
  IC50 M. intracellulare: 1.5 µg/mL (≈ 2.58 µM)

## N=C(N)c1ccc(OCCCCCOc2ccc(C(=N)N)cc2)cc1 [Pentamidine, reference compound]
Leishmania donovani; Leishmania donovani, T4, read-out: Leishmania donovani IC 50
  IC50: 2.1 µg/mL (≈ 6.17 µM)
Leishmania donovani; Leishmania donovani, T4, read-out: Leishmania donovani IC 90
  IC90: 10 µg/mL (≈ 29.4 µM)

## CO[C@H]1/C=C/O[C@@]2(C)Oc3c(C)c(O)c4c(O)c(c(/C=N/N5CCN(C)CC5)c(O)c4c3C2=O)NC(=O)/C(C)=C\C=C\[C@H](C)[C@H](O)[C@@H](C)[C@@H](O)[C@@H](C)[C@H](OC(C)=O)[C@@H]1C [Rifampin, reference compound]
[4]; [9]
  MIC: 0.5 µg/mL (≈ 0.608 µM)
[4]; T6, read-out: Mycobacterium tuberculosis MIC
  MIC: 0.24 µg/mL (≈ 0.292 µM)
[4]; rifampin = positive control, read-out: MIC against Mycobacterium tuberculosis (Mtb)
  MIC: 0.16 µg/mL (≈ 0.194 µM)

## O[C@@H]1CCCN2CC[C@@H]1O[C@@]13CC[C@@H](OC[C@]45CN6CCCC/C=C\CC[C@](O)(C=C(c7nccc8c7[nH]c7ccccc78)[C@@H]4CC6)[C@H]25)[C@@H](O)CCN1[C@@H]1[C@]2(CN4CCCC/C=C\CC[C@]1(O)C=C(c1nccc5c1[nH]c1ccccc15)[C@@H]2CC4)C3 [neo-Kauluamine]
[4]; [9]
  MIC: 2 µg/mL (≈ 1.72 µM)
Cryptococcus neoformans; Cryptococcus neoformans, read-out: Antifungal IC50 C. neoformans
  IC50: 3 µg/mL (≈ 2.58 µM)
[1]; [6]
  IC50: 1.7 µg/mL (≈ 1.46 µM)
[2]; [7]
  IC50: 2.8 µg/mL (≈ 2.41 µM)
[3]; [8]
  IC50: 3 µg/mL (≈ 2.58 µM)

— US20050085554A1, “Methods of treating disease through the administration of a manzamine analog or derivative” (priority 2003, published 2005)
